The subject of data set [1] is NMDA (N-methyl-D-aspartate) receptor. To be noted: noncompetitive NMDA receptor antagonist; cited from earlier work.
Data set [2] can be described thus: Physicochemical properties of the active ingredient (density, flow, particle size distribution). The conditions noted are these: active ingredient used in Example 1. The text has this: The different physicochemical properties of the active ingredient as well as excipients are to be considered, as these properties affect processing and the formulation properties of the compositions. Various physicochemical properties include, but are not limited to, particle size of the active ingredient, density (including bulk density and tapped density), compressibility index, Hausner's ratio, angle of repose, etc. The percentages of particles with different sizes that exist in a total powder, is the particle size distribution. It is represented in certain ways. Particle size is the maximun dimension of a particle, frequently expressed in micrometers. Particle size distributions can be expressed in terms of D10, D50, D90 and D[4,3]. The D10, D50 and D90 represent the 10th, median or the 50th percentile, and the 90th percentile of the particle size distribution, respectively, as measured by volume. That is, the D10, D50, D90 are values of the distribution such that 10%, 50%, and 90% of the particles have a size of this value or less […]. D50 also known as median diameter of particles. It is one of the important parameters representing characteristics of particle of powder. For a sample, if D50=5 μm, it means that 50% of the particles are smaller than 5 μm. Similarly, if D10=5 μm, 10% of the particles are less than or equal to 5 μm and if D90=5 μm, 90% of the particles have sizes less than or equal to 5 μm. D[4,3] is the volume moment mean of the particles or the volume weighted particle size.

For data set [3] the following is noted: cited from earlier work.

Structures can show the parent of a compound that is named as a salt.

Consider `C[C@]12CC3C[C@](C)(C1)C[C@@](N)(C3)C2` [Memantine, 1-amino-3,5-dimethyladamantane], for which, in data set [1], the “Affinity for the receptor” value is “low to moderate affinity” and the Blocking/unblocking kinetics entry is given as “rapid blocking/unblocking kinetics”.

Turning to `CC12CC3CC(C)(C1)CC(N)(C3)C2` [memantine hydrochloride], in data set [2], the Bulk density was 0.317 g/mL, the Compressibility index was 31.83, the “Hauser's ratio” value turned out to be 1.467 and the “Particle size distribution: D(10)” value amounted to 10.744 μm. In addition, in data set [2], the “Particle size distribution: D(50)” value is recorded as 60.545 μm, the “Particle size distribution: D(90)” value came out at 210.482 μm and the Tapped density worked out at 0.465 g/mL. For the same molecule, the Solubility in water entry in data set [3] is “highly soluble in water”.

The values above are taken from patent US20080182908A1, “PHARMACEUTICAL COMPOSITIONS COMPRISING MEMANTINE” (priority 2007, published 2008).
